# From ChEMBL document CHEMBL1146723, “Synthesis of benzophenone oxime analogues as inhibitor of secretory phospholipase A(2) with anti-inflammatory activity” (2004)
# “And” between values parts separate entries of the source, which are not always exact repeats. Equal values may be shown once. The source made the active and inactive calls. No cut-off for these calls is given here.
# Key:
# Trimeresurus malabaricus [1] = experiment: Percentage inhibitory activity against Phospholipase A2 isolated from venom of Trimeresurus malabaricus; NI = No inhibition
# Daboia russellii = experiment: (§1) Percentage inhibitory activity against Phospholipase A2 isolated from venom of Vipera russelli; conditions: concentration not given here
# Naja naja = experiment: (§2) Percentage inhibitory activity against Phospholipase A2 isolated from venom of Naja naja; conditions: concentration not given here
# Mus musculus = experiment: Antiinflammatory activity was evaluated for the increase in weight due to edema was calculated as edema ratio; assay type: functional
# [2] = molecular target: Phospholipase A2, major isoenzyme (Sus scrofa) (UniProt P00592); experiment: as §1; conditions: Daboia russellii; concentration not given here
# [3] = molecular target: Phospholipase A2, major isoenzyme (Sus scrofa) (UniProt P00592); experiment: as §2; conditions: concentration not given here
# [4] = molecular target: Phospholipase A2, major isoenzyme (Sus scrofa) (UniProt P00592); experiment: (§3) Percentage inhibitory activity against Phospholipase A2 isolated from venom of Trimeresurus malabaricus; conditions: concentration not given here
# Trimeresurus malabaricus [5] = experiment: as §3; conditions: concentration not given here
# Phospholipase A2, major isoenzyme (Sus scrofa), sequence (P00592 23-146 limits assumed): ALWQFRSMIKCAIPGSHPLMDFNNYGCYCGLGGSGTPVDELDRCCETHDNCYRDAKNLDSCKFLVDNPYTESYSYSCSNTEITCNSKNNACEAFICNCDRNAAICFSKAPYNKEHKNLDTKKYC
Structure (SMILES),inhibition (Trimeresurus malabaricus [1]),inhibition (Daboia russellii) [%],inhibition (Naja naja) [%],Edema ratio (Mus musculus),inhibition [2] [%],inhibition [3] [%],inhibition [4] [%],inhibition (Trimeresurus malabaricus [5]) [%]
COc1cccc(C(=NO)c2cccc(OC)c2)c1,inactive,58.7,36.9,136 and 142 and 181 and 147 and 149,–,–,–,–
COc1ccc(/C(=N/O)c2cccc(Cl)c2)cc1OC,–,–,–,101 and 109 and 105 and 106 and 107,85.3,90.2,72.4,–
Cc1cccc(/C(=N/O)c2ccccc2)c1,–,79.2,82.9,102 and 110 and 101 and 103 and 109,–,–,–,81.6
COc1ccc(/C(=N/O)c2ccccc2)cc1,inactive,29.9,42.4,180 and 142 and 183 and 147 and 151,–,–,–,–
